Data from article PMC10020352 (Frontiers in Pharmacology, 2023).
Where two headings read alike, the source gives them in different places. Where a SMILES comes first, the peptide text is derived from it. [ ]: non-standard residue; d: D form. Phe(4-NO2) = N[C@@H](Cc1ccc([N+](=O)[O-])cc1)C(=O)O; Phe(4-Cl) = N[C@@H](Cc1ccc(Cl)cc1)C(=O)O; Phe(4-F) = N[C@@H](Cc1ccc(F)cc1)C(=O)O; NMeR = CN[C@@H](CCCNC(=N)N)C(=O)O; Aoc = NCCCCCCCC(=O)O; Ahx = NCCCCCC(=O)O; Sar = CNCC(=O)O

Assays:
[1] = Metabolic stability in rat plasma; format: in vitro ADME; settings: pooled rat plasma, 37°C, peptide 100 μM; for half-life: rat, plasma, read-out: Stability (t1/2) Plasma
Protocol: (§1) Whole blood was collected in-house from adult mixed-gender Wistar rats (RRID: RGD_150520162), and plasma was prepared in 0.2% EDTA as per standard practice. Peptides (final 100 μM) were incubated with pooled rat plasma at 37°C. Samples were collected at different time intervals 0, 5, 10, 15, 30, 60, and 120 min. At each time point, collected samples were immediately added to three volumes of cold ACN. This mixture was vortexed for 30 s and then centrifuged at room temperature (13 K rpm, 5 min). The supernatant was taken and directly placed in glass HPLC vials for LCMS analysis. The protocol for the trypsin stability assay was as for the plasma stability assay except for the […] (bovine pancreatic trypsin 2.5 μg/mL in NH4HCO3 buffer, approx. pH 8–8.5, 37°C).
(§2) Relative concentrations of each peptide from stability assays in plasma or trypsin were analysed using an Agilent binary LC system consisting of an Agilent 1290 Infinity LC pump, Agilent 1,290 auto-sampler coupled with Triple Quad Mass-Spectrometer (MS, model 6460, Agilent Technologies). A bidentate C18 HPLC column (Cogent, 100 Å, […]) with a binary solvent gradient composed of Solvent: A 0.1%v/v formic acid in MQ water and Solvent B: 0.1% v/v formic acid in ACN was used for the separation. The MS parameters were optimised for all compounds to obtain the highest signal in positive Total Ion Current (TIC) mode. Data were analysed using a combination of Microsoft Excel and GraphPad Prism software packages. Data was normalised to time point zero (immediately after compound addition) and expressed in percentages from t = 0. Half-lives were calculated in GraphPad Prism software (v8.3).

DOP receptor = molecular target: T1, DOP receptor (Homo sapiens, UniProt P41143); experiment: cell-based
T1 construct: expressed in transfected cells; host or cells: HEK293

[2] = test system: pERK1/2 in HEK293-KOP receptor cells; format: cell-based
[3] = molecular target: T2, bovine pancreatic trypsin (Bos taurus, UniProt P00760); experiment: Metabolic stability in trypsin; format: in vitro ADME; settings: bovine pancreatic trypsin 2.5 μg/mL, pH 8-8.5, 37°C, peptide 100 μM; read-out: Stability (t1/2) Trypsin
T2 sequence (P00760 24-246): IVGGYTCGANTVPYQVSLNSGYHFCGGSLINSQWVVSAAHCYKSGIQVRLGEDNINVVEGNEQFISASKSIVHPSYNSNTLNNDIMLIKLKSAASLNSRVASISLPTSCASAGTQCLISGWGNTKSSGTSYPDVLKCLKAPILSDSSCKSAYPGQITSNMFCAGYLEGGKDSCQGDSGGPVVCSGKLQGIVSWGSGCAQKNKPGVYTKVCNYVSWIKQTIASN
Protocol: as §1, §2

KOP receptor [4] = molecular target: T3, KOP receptor (Homo sapiens, UniProt P41145); format: cell-based
MOP receptor = molecular target: T4, MOP receptor (Homo sapiens, UniProt P35372); experiment: cell-based
T4 construct: expressed in transfected cells; host or cells: HEK293

KOP receptor [5] = molecular target: T3, KOP receptor; experiment: cell-based; format: cell-based
[6] = test system: FCA model of inflammatory nociception; settings: rat
KOP receptor [7] = molecular target: T3, KOP receptor; experiment: biochemical; format: binding

T4 sequence (P35372 whole entry): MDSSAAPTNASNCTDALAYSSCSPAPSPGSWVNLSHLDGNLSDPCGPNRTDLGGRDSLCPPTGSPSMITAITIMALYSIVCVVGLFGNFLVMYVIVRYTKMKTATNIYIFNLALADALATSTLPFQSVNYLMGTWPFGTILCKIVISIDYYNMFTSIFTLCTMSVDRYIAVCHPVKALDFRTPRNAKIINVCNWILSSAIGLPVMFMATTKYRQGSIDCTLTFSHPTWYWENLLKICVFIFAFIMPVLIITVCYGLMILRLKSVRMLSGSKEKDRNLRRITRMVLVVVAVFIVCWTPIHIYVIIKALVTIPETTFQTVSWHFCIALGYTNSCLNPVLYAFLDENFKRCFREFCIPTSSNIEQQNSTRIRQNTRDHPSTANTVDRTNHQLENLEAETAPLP
T1 sequence (P41143 whole entry): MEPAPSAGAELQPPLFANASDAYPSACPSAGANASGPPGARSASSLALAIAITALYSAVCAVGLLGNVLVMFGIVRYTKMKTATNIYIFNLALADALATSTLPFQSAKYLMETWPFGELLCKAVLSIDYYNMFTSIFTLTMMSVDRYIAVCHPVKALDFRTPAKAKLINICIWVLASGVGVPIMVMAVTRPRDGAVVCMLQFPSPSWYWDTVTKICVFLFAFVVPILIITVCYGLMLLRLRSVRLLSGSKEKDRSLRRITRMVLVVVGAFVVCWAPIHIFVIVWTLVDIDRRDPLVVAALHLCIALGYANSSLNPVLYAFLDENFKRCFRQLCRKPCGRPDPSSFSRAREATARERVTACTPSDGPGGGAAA
T3 sequence (P41145 whole entry): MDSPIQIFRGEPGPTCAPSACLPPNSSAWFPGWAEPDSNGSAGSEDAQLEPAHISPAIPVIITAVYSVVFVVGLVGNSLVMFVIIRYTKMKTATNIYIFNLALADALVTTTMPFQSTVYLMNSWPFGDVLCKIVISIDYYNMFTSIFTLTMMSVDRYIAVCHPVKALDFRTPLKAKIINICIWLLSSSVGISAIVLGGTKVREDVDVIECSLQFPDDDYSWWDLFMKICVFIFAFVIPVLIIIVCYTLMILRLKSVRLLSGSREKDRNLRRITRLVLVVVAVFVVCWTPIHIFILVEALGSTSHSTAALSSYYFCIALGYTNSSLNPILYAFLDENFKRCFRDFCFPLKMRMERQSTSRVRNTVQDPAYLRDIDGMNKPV

Row | SMILES | half-life [1] | half-life [3] | EC50 (DOP receptor) | EC50 (KOP receptor [5]) | paw withdrawal threshold in the contralateral (uninflamed, untreated) paw ([6]; in vivo) | EC50 (MOP receptor) | also measured
1 | CC(C)C[C@H](NC(=O)[C@H](Cc1ccccc1)NC(=O)CNC(=O)CNC(=O)[C@@H](N)Cc1ccc(O)cc1)C(=O)N[C@@H](CCCNC(=N)N)C(=O)N[C@@H](CCCNC(=N)N)C(=O)O [Dyn 1-7, reference compound] | 8.1 min | < 1 min | – | – | – | – | EC50 (DOP receptor; read-out: Activity (EC50) DOP): 870 nM; bias factor β (cAMP versus pERK) [2]: bias towards pERK; pERK1/2 expression / activity [2]: time and concentration-dependent pERK expression; KOP receptor desensitisation (maximal cAMP effect after pre-treatment) (KOP receptor [4]): no discernible desensitisation; EC50 (MOP receptor; read-out: Activity (EC50) MOP): 3740 nM
2 | CC(C)C[C@H](NC(=O)[C@H](Cc1ccc([N+](=O)[O-])cc1)NC(=O)CN(C)C(=O)[C@@H](N)Cc1ccc(O)cc1)C(=O)N[C@@H](CCCNC(=N)N)C(=O)N[C@H](CCCNC(=N)N)C(N)=O [KA204] (H-Y[Sar][Phe(4-NO2)]LR[dR]-NH2) | > 60 min | 15.4 min | > 10000 nM | 7.5 nM | not observed | > 10000 nM | Stability (t1/2) Plasma [1]: 71 min; selectivity for KOP receptor over MOP receptor and DOP receptor (KOP receptor [5]): > 1000 fold; IC50 (KOP receptor [7]): 30.2 nM; Ki (KOP receptor [7]): 2.8 nM; IC50 (KOP receptor [7]; IC50): 30.2 nM
3 | CC(C)C[C@H](NC(=O)[C@H](Cc1ccc(F)cc1)NC(=O)CN(C)C(=O)[C@@H](N)Cc1ccc(O)cc1)C(=O)N(C)[C@@H](CCCNC(=N)N)C(=O)N[C@H](CCCNC(=N)N)C(N)=O [KA302] (H-Y[Sar][Phe(4-F)]L[NMeR][dR]-NH2) | – | > 1000 min | 1660 nM | 11.6 nM | – | 4000 nM | Stability (t1/2) Plasma [1]: 323.9 min; Selectivity (fold) KOP/DOP (DOP receptor): 143 fold; Selectivity (fold) KOP/DOP (MOP receptor): 344 fold
4 | CC(C)C[C@H](NC(=O)[C@H](Cc1ccc([N+](=O)[O-])cc1)NC(=O)CN(C)C(=O)[C@@H](N)Cc1ccc(O)cc1)C(=O)N(C)[C@@H](CCCNC(=N)N)C(=O)N[C@H](CCCNC(=N)N)C(N)=O [KA303] (H-Y[Sar][Phe(4-NO2)]L[NMeR][dR]-NH2) | 168 min | 12.1 min | 1320 nM | 13.5 nM | – | > 10000 nM | Selectivity (fold) KOP/DOP (DOP receptor): 98 fold
5 | CC(C)C[C@H](NC(=O)[C@H](Cc1ccc(Cl)cc1)NC(=O)CN(C)C(=O)[C@@H](N)Cc1ccc(O)cc1)C(=O)N[C@@H](CCCNC(=N)N)C(=O)N[C@H](CCCNC(=N)N)C(=O)NCCCCCC(N)=O [KA304] (H-Y[Sar][Phe(4-Cl)]LR[dR][Ahx]-NH2) | 79 min | 8.33 min | 1600 nM | 3.64 nM | – | 363 nM | Selectivity (fold) KOP/DOP (DOP receptor): 440 fold; Selectivity (fold) KOP/DOP (MOP receptor): 100 fold
6 | CC(C)C[C@H](NC(=O)[C@H](Cc1ccc(Cl)cc1)NC(=O)CN(C)C(=O)[C@@H](N)Cc1ccc(O)cc1)C(=O)N[C@@H](CCCNC(=N)N)C(=O)N[C@H](CCCNC(=N)N)C(=O)NCCCCCCCC(N)=O [KA305] (H-Y[Sar][Phe(4-Cl)]LR[dR][Aoc]-NH2) | – | 4.9 min | – | – | not observed | – | bias factor β (cAMP versus pERK) [2]: bias towards cAMP; pERK1/2 expression / activity [2]: influenced pERK induction at higher concentrations; inhibition of peptide cAMP modulation by naloxone (KOP receptor [5]): significantly blocked; overall efficacy (AUC of in vivo effect) [6]: significantly better efficacy than U50488H; Efficacy Index (Ie) ([6]; in vivo): statistically significant higher Ie over morphine; antinociceptive activity (paw withdrawal threshold) ([6]; in vivo): showed antinociceptive activity; effect of naloxone on peptide-induced antinociception ([6]; in vivo): blocked by pre-administration of naloxone; effect on oedema of the affected paw ([6]; in vivo): without effecting oedema; Log IC50 (KOP receptor [7]): -7.14; binding affinity to KOP receptor (in words) (KOP receptor [7]): strong binders; IC50 (KOP receptor [7]; read-out: IC50): 72.6 nM; KOP receptor desensitisation (maximal cAMP effect after pre-treatment) (KOP receptor [4]): modest but significant desensitisation
7 | CC(C)C[C@H](NC(=O)[C@H](Cc1ccc(Cl)cc1)NC(=O)CN(C)C(=O)[C@@H](N)Cc1ccc(O)cc1)C(=O)N[C@@H](CCCCN)C(=O)N[C@H](CCCNC(=N)N)C(N)=O [KA306] (H-Y[Sar][Phe(4-Cl)]LK[dR]-NH2) | 160 min | 69.9 min | > 10000 nM | 26 nM | – | > 10000 nM | –
8 | CC(C)C[C@H](NC(=O)[C@H](Cc1ccc(Cl)cc1)NC(=O)CN(C)C(=O)[C@@H](N)Cc1ccc(O)cc1)C(=O)N[C@@H](CCCNC(=N)N)C(=O)N(C)[C@@H](CCCNC(=N)N)C(N)=O [KA309] (H-Y[Sar][Phe(4-Cl)]LR[NMeR]-NH2) | – | > 1000 min | > 10000 nM | 3.9 nM | – | > 10000 nM | Stability (t1/2) Plasma [1]: 174.1 min
9 | CC(C)C[C@H](NC(=O)[C@H](Cc1ccc([N+](=O)[O-])cc1)NC(=O)CN(C)C(=O)[C@@H](N)Cc1ccc(O)cc1)C(=O)N(C)[C@@H](CCCNC(=N)N)C(=O)N(C)[C@@H](CCCNC(=N)N)C(N)=O [KA311] (H-Y[Sar][Phe(4-NO2)]L[NMeR][NMeR]-NH2) | – | > 1000 min | > 10000 nM | 31 nM | not observed | > 10000 nM | selectivity for KOP receptor over MOP receptor and DOP receptor (KOP receptor [5]): > 1000 fold; Ki (KOP receptor [7]): 180 nM; IC50 (KOP receptor [7]; IC50): 1950 nM
10 | CC(C)C[C@H](NC(=O)[C@H](Cc1ccc(Cl)cc1)NC(=O)CN(C)C(=O)[C@@H](N)Cc1ccc(O)cc1)C(=O)N[C@@H](CCCNC(=N)N)C(=O)N(C)[C@@H](CCCNC(=N)N)C(=O)NCCCCCCCC(N)=O [KA312] (H-Y[Sar][Phe(4-Cl)]LR[NMeR][Aoc]-NH2) | 15.6 min | 445 min | > 10000 nM | 3.79 nM | – | > 10000 nM | –
11 | CC(C)C[C@H](NC(=O)[C@H](Cc1ccc([N+](=O)[O-])cc1)NC(=O)CN(C)C(=O)[C@@H](N)Cc1ccc(O)cc1)C(=O)N[C@@H](CCCNC(=N)N)C(=O)N(C)[C@@H](CCCNC(=N)N)C(=O)NCCCCCCCC(N)=O [KA313] (H-Y[Sar][Phe(4-NO2)]LR[NMeR][Aoc]-NH2) | 12.5 min | > 1000 min | > 10000 nM | 4.45 nM | – | > 10000 nM | –
12 | CC(C)C[C@H](NC(=O)[C@H](Cc1ccc([N+](=O)[O-])cc1)NC(=O)CN(C)C(=O)[C@@H](N)Cc1ccc(O)cc1)C(=O)N[C@@H](CCCNC(=N)N)C(=O)N[C@H](CCCNC(=N)N)C(=O)NCCCCCCCC(N)=O [KA314] (H-Y[Sar][Phe(4-NO2)]LR[dR][Aoc]-NH2) | 18.6 min | 16.1 min | > 10000 nM | 2.49 nM | – | > 10000 nM | –
13 | CN1CC[C@]23c4c5ccc(O)c4O[C@H]2[C@@H](O)C=C[C@H]3[C@H]1C5 [Morphine, reference compound] | – | – | – | – | significantly reduced | – | –
